In brackets after ≈: the same amount, converted by molar mass. Like-named read-outs stand apart in the source and are kept apart here.

Data set [1] concerns HeLa (cervical adenocarcinoma). As to the kind of experiment: Cell viability assay (Cell Titer-Glo), HeLa. In kind it is cell-based, human. The note with it: read-out: IC50 (μM) HeLa. As to the method:
(§1) Cells were grown in media supplemented with fetal bovine serum (FBS) and antibiotics ([…] and 100 U/mL streptomycin). Specifically, experiments were performed using the following cell lines and media compositions: HeLa (cervical adenocarcimona) and A549 (lung carcinoma) were grown in RPMI-1640+10% FBS; HCT-116 (colorectal carcinoma) was grown in DMEM+10% FBS; DU-145 (prostate carcinoma) and MCF7 (breast adenocarcinoma) were grown in EMEM+10% FBS. Cells were incubated at 37° C. in a 5% CO2, 95% humidity atmosphere.
(§2) Cells were plated at 2000 cells/well into duplicate assay plates in 50 L media into 384-well white, opaque, tissue-culture treated plates and allowed to adhere overnight at 37° C./5% CO2. Compounds were solubilized in DMSO as 1000× stocks and 100 nl was pin-transferred to cells (V&P pin tool mounted on Tecan Freedom Evo MCA96). Compounds were tested in 10-pt, 2-fold dilution with concentrations tested between 1 nM-20 μM for most compounds, except where indicated. DMSO (32 wells of 384-wells) was used as vehicle control. After 72 hours of incubation at 37° C./5% CO2, 10 L Cell Titer-Glo (Promega) was added to each well and plates were incubated at room temperature for 10 minutes before the luminescence was read on a Tecan M1000 plate reader. Cell Titer-Glo measures ATP levels of cells as a surrogate for cell viability. All compound-treated wells was normalized to the DMSO control averages and expressed as a % of DMSO viability. IC50 values were determined from the dose curves using Spotfire (Perkin Elmer).

In data set [2] the test system is DU-145 (prostate carcinoma). Description: Cell viability assay (Cell Titer-Glo), DU-145. Type of data set: cell-based, human. The note with it: read-out: IC50 (μM) DU-145. As for the experimental part: as §1, §2
For orientation: In ATP-based viability assays light output follows the ATP content of the culture.

The test system of data set [3] is MCF7 (breast adenocarcinoma). As to the kind of experiment: Cell viability assay (Cell Titer-Glo), MCF7. The following applies: read-out: IC50 (μM) MCF7. In kind it is cell-based, human. As for the experimental part:
as §1, §2

For data set [4], the system named is HCT-116 (colorectal carcinoma). As to the kind of experiment: Cell viability assay (Cell Titer-Glo), HCT-116. In kind it is cell-based, human. The note with it: read-out: IC50 (μM) HCT-116. As for the experimental part:
as §1, §2

In a further data set the test system is A549 (lung carcinoma). As to the kind of experiment: Cell viability assay (Cell Titer-Glo), A549. Type of data set: cell-based, human. The following applies: read-out: IC50 (μM) A549. As to the method: as §1, §2
Data set [5] deals with third instar larvae of silkworms. The following applies: cited from earlier work; for insecticidal activity compared with communesin B (4): silkworms.
For the next data set, the system named is vasculogenesis. The following applies: in vivo; cited from earlier work.
Data set [6] has as its system P-388 lymphocytic leukemia cells. The following applies: cultured mouse P-388 lymphocytic leukemia cells; cited from earlier work.
Data set [7] deals with A549, DU-145, HCT116, HeLa and MCF7 cell lines. Description: Cytotoxicity across all five cancer cell lines (text summary of Table 1). The following applies: for decrease in potency/activity relative to (−)-communesin B (4): N8-H or N8-formyl vs N8-methyl. As for the experimental part:
as §1, §2
With samples of all known communesin alkaloids and a selection of unnatural derivatives in hand, the anticancer activity for this entire class of natural products was explored. While previous isolation reports have evaluated the activity of selected natural communesins, no comprehensive comparison of the entire class of alkaloids across multiple cell lines has been performed.

Data set [8] has as its system human leukemia cell lines. The note with it: array of human leukemia cell lines; cited from earlier work.
The mark [9] stands for this setting: cytotoxicity after 72 h of compound treatment, Cell Titer-Glo (ATP levels).
The mark [10] stands for this setting: Homo sapiens, cytotoxicity after 72 h of compound treatment, Cell Titer-Glo (ATP levels).
[11] abbreviates: Homo sapiens, DU-145, cytotoxicity after 72 h of compound treatment, Cell Titer-Glo (ATP levels).
Where [12] appears, read: Homo sapiens, MCF7, cytotoxicity after 72 h of compound treatment, Cell Titer-Glo (ATP levels).
[13] abbreviates: Homo sapiens, HCT-116, cytotoxicity after 72 h of compound treatment, Cell Titer-Glo (ATP levels).
Setting [14] is: Homo sapiens, A549, cytotoxicity after 72 h of compound treatment, Cell Titer-Glo (ATP levels).

One may read the IC50 as the point on the concentration scale where inhibition reaches its midpoint. As to `CC(=O)N1CC[C@@]23c4ccccc4N[C@@H]4N(C)c5cccc6c5[C@@]42CCN([C@@H]6C=C(C)C)[C@@H]13` [(−)-1, (−)-communesin F], the IC50 is 115 µM in data set [1] (setting [9]); 119 µM in [2] (setting [9]); 84 µM in [3] (setting [9]); above 125 µM in data set [4] (setting [9]); 117 µM in the data set on A549 (lung carcinoma) (setting [9]).

Turning to `CC(=O)N1CC[C@@]23c4ccccc4N[C@@H]4N(C)c5cccc6c5[C@@]42CCN([C@@H]13)[C@@H]6[C@H]1OC1(C)C` [Communesin A (2), (−)-communesin A], the “insecticidal activity compared with communesin B (4)” value in data set [5] was “lower insecticidal activities”. Further, the vasculogenetic activity result in the data set with vasculogenesis is reported as “moderate vasculogenetic activity”. Besides, the “ED50, cytotoxicity” value in [6] was 3.5 µg/mL (≈ 7.67 µM).

In the case of `CC(=O)N1CC[C@@]23c4ccccc4N[C@@H]4N(C)c5cccc6c5[C@@]42CCN([C@@H]13)[C@@H]6[C@H]1OC1(C)C` [(−)-2, (−)-communesin A], the “cytotoxic potency across all cell lines (in words)” value in [7] was “principally inactive”. Besides, the IC50 in data set [1] (setting [10]) is above 125 µM; in data set [2] (setting [11]), above 250 µM; in data set [3] (setting [12]), above 250 µM; in data set [4] (setting [13]) it was above 250 µM; in the data set on A549 (lung carcinoma) (setting [14]), above 125 µM.

Consider `CC(=O)N1CC[C@@]23c4ccccc4N[C@@H]4N(C=O)c5cccc6c5[C@@]42CCN([C@@H]13)[C@@H]6[C@H]1OC1(C)C` [(+)-43, (+)-N8-formyl communesin E], for which the “cytotoxic potency across all cell lines (in words)” value in [7] is “principally inactive”. Besides, the IC50 in [1] (setting [10]) was above 125 µM; in data set [2] (setting [11]) it was above 250 µM; in data set [3] (setting [12]) it was above 250 µM; in [4] (setting [13]) it was above 250 µM; in the data set on A549 (lung carcinoma) (setting [14]) it was above 250 µM.

In the case of `CCC(=O)N1CC[C@]23c4ccccc4N[C@H]4N(C)c5cccc6c5[C@]42CCN([C@H]6[C@@H]2OC2(C)C)[C@H]13` [(−)-7, (−)-communesin G], the “cytotoxic potency across all cell lines (in words)” value in [7] was “principally inactive”. For the same molecule, the half-maximal inhibitory concentration (IC50) in [1] (setting [9]) was above 125 µM; in data set [2] (setting [9]), above 125 µM; in data set [3] (setting [9]), above 250 µM; in [4] (setting [9]), above 125 µM; in the data set on A549 (lung carcinoma) (setting [9]), above 125 µM.

Take `CCCC(=O)N1CC[C@]23c4ccccc4N[C@H]4N(C)c5cccc6c5[C@]42CCN([C@H]6[C@@H]2OC2(C)C)[C@H]13` [(−)-8, (−)-communesin H]: the IC50 in [1] (setting [9]) is 82 µM; in data set [2] (setting [9]), above 125 µM; in [3] (setting [9]) it was 90 µM; in data set [4] (setting [9]) it was 109 µM; in the data set with A549 (lung carcinoma) (setting [9]), above 125 µM.

On to `CCC[C@H](O)CC(=O)N1CC[C@@]23c4ccccc4N[C@@H]4N(C)c5cccc6c5[C@@]42CCN([C@@H]13)[C@@H]6[C@H]1OC1(C)C` [(−)-10, (−)-communesin I], for which the IC50 in data set [1] (setting [9]) is 120 µM; in data set [2] (setting [9]), above 125 µM; in data set [3] (setting [9]), 90 µM; in [4] (setting [9]), above 125 µM; with A549 (lung carcinoma) (setting [9]), 120 µM.

Regarding `C/C=C/C=C/C(=O)N1CC[C@@]23c4ccccc4N[C@@H]4N(C=O)c5cccc6c5[C@@]42CCN([C@@H]13)[C@@H]6[C@H]1OC1(C)C` [communesin D (6), (+)-communesin D], in data set [5], the “insecticidal activity compared with communesin B (4)” value is “lower insecticidal activities”. For the same molecule, in data set [8], the anti-proliferative activity entry is “moderate anti-proliferative activity”.

For `C/C=C/C=C/C(=O)N1CC[C@@]23c4ccccc4N[C@@H]4N(C)c5cccc6c5[C@@]42CCN([C@@H]13)[C@@H]6[C@H]1OC1(C)C` [Communesin B (4), communesin B], the “LD50, insecticidal” value in data set [5] (third instar larvae of silkworms, oral administration) was 5 μg/g of diet. The “ED50, cytotoxicity” value in [6] is 0.45 µg/mL (≈ 0.885 µM).

For `C/C=C/C=C/C(=O)N1CC[C@@]23c4ccccc4N[C@@H]4Nc5cccc6c5[C@@]42CCN([C@@H]13)[C@@H]6[C@H]1OC1(C)C` [communesin C (5), (−)-communesin C], the anti-proliferative activity result in data set [8] is given as “moderate anti-proliferative activity”.

Regarding `C/C=C/C=C/C(=O)N1CC[C@@]23c4ccccc4N[C@@H]4N(C)c5cccc6c5[C@@]42CCN([C@@H]13)[C@@H]6[C@H]1OC1(C)C` [(−)-4, (−)-communesin B], the IC50 in data set [1] (setting [10]) was 47 µM; in data set [2] (setting [11]), 45 µM; in data set [3] (setting [12]) it was 34 µM; in data set [4] (setting [13]), 60 µM; in the data set on A549 (lung carcinoma) (setting [14]), 56 µM.

Take `C/C=C/C=C/C(=O)N1CC[C@@]23c4ccccc4N[C@@H]4N(C)c5cccc6c5[C@@]42CCN([C@@H]13)[C@@H]6[C@H]1OC1(C)C` [(−)-communesin B (4)]: the “cytotoxic potency across all cell lines (in words)” value in data set [7] was “highest potency of all the natural products tested”.

On to `C/C=C/C=C/C(=O)N1CC[C@@]23c4ccccc4N[C@@H]4N(C=O)c5cccc6c5[C@@]42CCN([C@@H]13)[C@@H]6[C@H]1OC1(C)C` [(+)-6, (+)-communesin D], for which the “decrease in potency/activity relative to (−)-communesin B (4)” value in data set [7] was “two- to threefold decrease in activity”. In addition, the IC50 was 63 µM in data set [1] (Homo sapiens, 72 h); 84 µM in [2] (Homo sapiens, DU-145, 72 h); above 125 µM in [3] (Homo sapiens, MCF7, 72 h); 111 µM in [4] (Homo sapiens, HCT-116, 72 h); above 125 µM in the data set on A549 (lung carcinoma) (Homo sapiens, A549, 72 h).

On to `C/C=C/C=C/C(=O)N1CC[C@@]23c4ccccc4N[C@@H]4Nc5cccc6c5[C@@]42CCN([C@@H]13)[C@@H]6[C@H]1OC1(C)C` [(−)-5, (−)-communesin C], for which the “decrease in potency/activity relative to (−)-communesin B (4)” value in data set [7] is “two- to threefold decrease in activity”. Besides, the IC50 was found to be 94 µM in data set [1] (Homo sapiens, 72 h); 82 µM in data set [2] (Homo sapiens, DU-145, 72 h); 65 µM in data set [3] (Homo sapiens, MCF7, 72 h); 106 µM in data set [4] (Homo sapiens, HCT-116, 72 h); 115 µM in the data set with A549 (lung carcinoma) (Homo sapiens, A549, 72 h).

`CC(=O)N1CC[C@@]23c4ccccc4N[C@@H]4N(C)c5cccc6c5[C@@]42CCN([C@@H]6C=C(C)C)[C@@H]13` [Communesin F (1), (−)-communesin F]: in data set [5], the “insecticidal activity compared with communesin B (4)” value is recorded as “lower insecticidal activities”.

Turning to `CC(=O)N1CC[C@@]23c4ccccc4N[C@@H]4Nc5cccc6c5[C@@]42CCN([C@@H]13)[C@@H]6[C@H]1OC1(C)C` [(−)-3, (−)-communesin E], the “cytotoxic potency across all cell lines (in words)” value in data set [7] was “principally inactive”. For the same molecule, the IC50 (in data set [1] (setting [10]); in data set [2] (setting [11]); in [3] (setting [12]); in [4] (setting [13]); in the data set with A549 (lung carcinoma) (setting [14])) was above 500 µM each time.

In the case of `C/C=C/C=C/C(=O)N1CC[C@@]23c4ccccc4N[C@@H]4N(C)c5cccc6c5[C@@]42CCN([C@@H]13)[C@@H]6[C@H]1OC1(C)C` [(−)-communesin B], in data set [7] (A549, DU-145, HCT116, HeLa, MCF7), the “cytotoxic potency across all cell lines (in words)” value is on record as “most potent natural isolate”.

The values above are taken from US20210329919A9, “SYNTHESIS AND ANTI-CANCER ACTIVITY OF COMMUNESIN ALKALOIDS” (Massachusetts Institute of Technology, priority 2019, published 2021).
